Source: US6030951A, “Chrysomycin derivative compounds and use as antitumor agents” (Mercian Corporation, priority 1996, dated 2000)
In brackets after ≈: the same amount, converted by molar mass. Read-outs that look alike come from different tables or passages of the source.

What was measured:
HT29 (colic cancer) = test: Inhibition of growth of human cancer cells (WST-1, 3 days); assay type: cell-based; conditions: HT-29, 72 h, read-out: IC50 value
Description: (§1) Using various human cancer cells, the concentrations of test compounds which inhibits the growth of cancer cells by 50% were determined. Specifically, each of K562 (leukemic cell), HT29 (colic cancer), HT1080 (reticulogranuloma cell), MCF7 (mammary cancer cell), PC6 (pulmonary cancer cell) and MKN28 (gastric cancer cell) was added to a 96-well microtiter/plate at a density of 2-5×10^3 cells per well, and RPM11640 medium (phenol red-free) containing 10% FBS, together with a test compound, was added thereto. Then, this plate was incubated at 37° C. for 3 days in an atmosphere of air containing 5% CO2. Thereafter, 10 μl of WST-1 reagent [0.065% 2-(4-iodophenyl)-3-(4-nitrophenyl)-5-(2,4-disulfonyl)-2H-tetrazolium monosodium salt, 0.007% 1-methoxy-5-methylphenazium methylsulfate] was added to each well, and the plate was further incubated for 3 hours. Then, the absorbance of each well at 450 nm (with a reference wavelength of 650 nm) was measured with a plate reader.

K562 (leukemic cell) = test: as above; assay type: cell-based; conditions: read-out: IC50 value
Description: as §1

[1] = tested on: MCF7 (mammary cancer cell); test: as above; assay type: cell-based; conditions: read-out: IC50 value
Description: as §1

[2] = tested on: MKN28 (gastric cancer cell); test: as above; assay type: cell-based; conditions: MKN-28, 72 h, read-out: IC50 value
Description: as §1

[3] = tested on: PC6 (pulmonary cancer cell); test: as above; assay type: cell-based; conditions: 72 h, read-out: IC50 value
Description: as §1

solid cancer cells = test: Growth-inhibiting activity against cultured solid cancer cells; assay type: cell-based, human; conditions: for effectiveness against cells derived from tumors, particularly solid cancers: colic, mammary, pulmonary and gastric cancer, mammals, in particular human
Description: as §1

tumor cells = test: Growth-inhibiting activity against various types of tumor cells; assay type: cell-based, human; conditions: as compared with chrysomycins
Description: as §1

[4] = organic solvents such as chloroform, acetone and methanol

SMILES	IC50 (HT29 (colic cancer))	IC50 (K562 (leukemic cell); K562, 72 h)	IC50 ([1]; MCF7, 72 h)	IC50 [2]	IC50 [3]	IC50 (HT29 (colic cancer); HT29, 3 days, 37° C.)	IC50 (K562 (leukemic cell); 72 h, K562, 3 days, 37° C.)	IC50 ([1]; 72 h, MCF7, 3 days, 37° C.)	IC50 ([2]; MKN28, 3 days, 37° C.)	IC50 ([3]; PC6, 3 days, 37° C.)	growth-inhibiting activity against all types of cultured solid cancers used for testing (solid cancer cells; all types tested)	effectiveness against cells derived from tumors, particularly solid cancers (solid cancer cells)	Solubility (Solubility; [4])	Solubility (Solubility; water)	growth-inhibiting activity against various types of tumor cells (tumor cells)
C=Cc1cc(OC)c2c(c1)c(=O)oc1c2cc(OC)c2c(O)ccc(C3OC(C)C(O)C(C)(O)C3O)c21 (stereo not drawn) [Chrysomycin A, reference compound]	0.84 µg/mL (≈ 1.65 µM)	0.106 µg/mL (≈ 0.208 µM)	0.53 µg/mL (≈ 1.04 µM)	0.144 µg/mL (≈ 0.283 µM)	0.335 µg/mL (≈ 0.659 µM)										
COc1cc2c(oc(=O)c3cc(C)cc(OC)c32)c2c(C3OC(C)C(O)C(C)(O)C3O)ccc(O)c12 (stereo not drawn) [Chrysomycin B, reference compound]						2.63 µg/mL (≈ 5.3 µM)	1.76 µg/mL (≈ 3.54 µM)	2.58 µg/mL (≈ 5.2 µM)	2.65 µg/mL (≈ 5.34 µM)	3.5 µg/mL (≈ 7.05 µM)					
COc1cc2c(oc(=O)c3cc(C)cc(OC)c32)c2c(C3OC(C)C(O)(C(C)=O)C3O)ccc(O)c12 (stereo not drawn) [Mer-1020dA]						0.075 µg/mL (≈ 0.152 µM)	0.36 µg/mL (≈ 0.728 µM)	0.032 µg/mL (≈ 0.0647 µM)	0.017 µg/mL (≈ 0.0344 µM)	0.064 µg/mL (≈ 0.129 µM)	significantly excellent growth-inhibiting activity	remarkable effectiveness	Soluble	insoluble	
COc1cc2c(oc(=O)c3cc(C)cc(OC)c32)c2c(C3OC(C)C(=O)C(C)(O)C3O)ccc(O)c12 (stereo not drawn) [Mer-1020dB]						0.35 µg/mL (≈ 0.708 µM)	0.28 µg/mL (≈ 0.566 µM)	0.35 µg/mL (≈ 0.708 µM)	0.35 µg/mL (≈ 0.708 µM)	0.11 µg/mL (≈ 0.222 µM)		remarkable effectiveness	Soluble	insoluble	
C=Cc1cc(OC)c2c(c1)c(=O)oc1c2cc(OC)c2c(O)ccc(C3OC(C)C(=O)C(C)(O)C3O)c21 (stereo not drawn) [Mer-1020dC]						0.1 µg/mL (≈ 0.197 µM)	0.11 µg/mL (≈ 0.217 µM)	0.42 µg/mL (≈ 0.829 µM)	0.32 µg/mL (≈ 0.632 µM)	0.03 µg/mL (≈ 0.0592 µM)		remarkable effectiveness	Soluble	insoluble	
C=Cc1cc(OC)c2c(c1)c(=O)oc1c2cc(OC)c2c(O)ccc(C3OC(C)C(O)(C(C)=O)C3O)c21 (stereo not drawn) [Mer-1020dD]						0.15 µg/mL (≈ 0.296 µM)	0.21 µg/mL (≈ 0.415 µM)	0.6 µg/mL (≈ 1.18 µM)	1 µg/mL (≈ 1.97 µM)	2.5 µg/mL (≈ 4.94 µM)		remarkable effectiveness	Soluble	insoluble	
COc1cc2c(oc(=O)c3cc(C)cc(OC)c32)c2cccc(O)c12 [Mer-1020dE]						19 µg/mL (≈ 56.5 µM)	8.1 µg/mL (≈ 24.1 µM)	17 µg/mL (≈ 50.5 µM)	11 µg/mL (≈ 32.7 µM)	34 µg/mL (≈ 101 µM)			Soluble	insoluble	lower as compared with chrysomycins
